# Measurements taken from US11713306B2, “5-substituted difluoropiperidine compounds with blood-brain barrier penetrable capability” (Wayshine Biopharm Holding Limited, priority 2018, dated 2023).
# Target: EGFR (Homo sapiens (Human), UniProt P00533)
# Assay: Kinase inhibition assay (Caliper, FAM-labeled peptide substrate)
# Format: biochemical
# Details: not given
# Method: (§1) 2.5 times of the kinase (VEGFR2 or EGFR or FYN) buffer solution was added to the compound diluted in equal concentration in the 384-well plate and incubated at 22-27° C. for 10 minutes, then 2.5 times of the FAM-labeled peptide substrate and ATP buffer solution were added therein and incubated at 28° C., and then the stop buffer solution was added to stop the reaction. The data was read by Caliper and the following formula was used to calculate the IC50 inhibition: Percent inhibition=(max-conversion)/(max-min)*100. Staurosporine was used as a control. In kinase inhibition assays, some of the compounds of the present invention are effective in inhibiting VEGFR2/FYN/EGFR, so they have the potential for treating or preventing cancer or central nervous system diseases (Table 1).
# EGFR, sequence (P00533 25-1210, species assumed): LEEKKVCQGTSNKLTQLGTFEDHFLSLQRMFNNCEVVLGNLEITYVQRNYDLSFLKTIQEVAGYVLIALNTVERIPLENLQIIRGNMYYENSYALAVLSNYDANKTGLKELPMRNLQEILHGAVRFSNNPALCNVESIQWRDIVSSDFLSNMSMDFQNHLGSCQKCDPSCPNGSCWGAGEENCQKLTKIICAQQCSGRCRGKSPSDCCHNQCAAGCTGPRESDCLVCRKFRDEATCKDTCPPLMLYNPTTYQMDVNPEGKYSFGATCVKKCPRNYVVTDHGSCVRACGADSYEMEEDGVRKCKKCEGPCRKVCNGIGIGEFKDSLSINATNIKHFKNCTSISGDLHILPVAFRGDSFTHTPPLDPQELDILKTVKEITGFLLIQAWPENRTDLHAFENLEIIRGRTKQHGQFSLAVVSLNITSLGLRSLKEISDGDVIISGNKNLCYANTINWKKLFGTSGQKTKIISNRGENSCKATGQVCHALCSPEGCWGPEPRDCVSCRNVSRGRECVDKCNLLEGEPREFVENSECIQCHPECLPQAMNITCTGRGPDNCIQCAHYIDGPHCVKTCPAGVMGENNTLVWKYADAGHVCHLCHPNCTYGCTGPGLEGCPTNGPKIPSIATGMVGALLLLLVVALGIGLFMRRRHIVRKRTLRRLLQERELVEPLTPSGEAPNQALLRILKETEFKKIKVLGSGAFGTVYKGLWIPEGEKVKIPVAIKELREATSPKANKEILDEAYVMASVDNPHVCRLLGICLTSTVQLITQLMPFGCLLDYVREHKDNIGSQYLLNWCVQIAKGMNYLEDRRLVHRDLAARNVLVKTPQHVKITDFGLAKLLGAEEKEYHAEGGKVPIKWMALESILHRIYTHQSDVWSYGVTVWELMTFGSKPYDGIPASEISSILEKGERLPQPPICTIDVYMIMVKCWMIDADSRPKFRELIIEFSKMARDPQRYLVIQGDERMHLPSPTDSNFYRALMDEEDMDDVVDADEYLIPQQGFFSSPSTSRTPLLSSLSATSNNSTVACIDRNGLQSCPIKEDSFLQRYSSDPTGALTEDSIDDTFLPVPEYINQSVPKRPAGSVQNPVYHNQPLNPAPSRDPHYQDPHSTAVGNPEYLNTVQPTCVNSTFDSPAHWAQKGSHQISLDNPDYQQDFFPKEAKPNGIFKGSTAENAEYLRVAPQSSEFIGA
row,SMILES,IC50 [nM]
1,"C#Cc1cccc(Nc2ncnc3cc(OC)cc(OC4CCN(C)CC4(F)F)c23)c1F (racemic) [Compound 11, (R/S)-5-((3,3-difluoro-1-methylpiperidin-4-yl)oxy)-N-(3-ethynyl-2-fluorophenyl)-7-methoxyquinazolin-4-amine]",< 10
2,"C#Cc1cccc(Nc2ncnc3cc(OC)cc(O[C@H]4CCN(C)CC4(F)F)c23)c1F (single isomer, unassigned) [Compound 43]",< 10
3,"C#Cc1c(F)ccc(Nc2ncnc3cc(OC)cc(O[C@@H]4CCN(C)CC4(F)F)c23)c1F [Compound 32, (R)-5-((3,3-difluoro-1-methylpiperidin-4-yl)oxy)-N-(3-ethynyl-2,4-difluorophenyl)-7-methoxyquinazolin-4-amine]",< 10
4,"C#Cc1c(F)ccc(Nc2ncnc3cc(OC)cc(O[C@H]4CCN(C)CC4(F)F)c23)c1F [Compound 48, (S)-5-((3,3-difluoro-1-methylpiperidin-4-yl)oxy)-N-(3-ethynyl-2,4-difluorophenyl)-7-methoxyquinazolin-4-amine]",< 10

# The remaining lines, values ahead:
row,IC50 [nM],SMILES
1,< 10,"C#Cc1c(F)ccc(Nc2ncnc3cc(OC)cc(OC4CCN(C)CC4(F)F)c23)c1F (racemic) [Compound 16, (R/S)-5-((3,3-difluoro-1-methylpiperidin-4-yl)oxy)-N-(3-ethynyl-2,4-difluorophenyl)-7-methoxyquinazolin-4-amine]"
2,< 10,"C#Cc1cccc(Nc2ncnc3cc(OC)cc(O[C@@H]4CCN(C)CC4(F)F)c23)c1F [Compound 27, (R)-5-((3,3-difluoro-1-methylpiperidin-4-yl)oxy)-N-(3-ethynyl-2-fluorophenyl)-7-methoxyquinazolin-4-amine]"

# Target: FYN (Homo sapiens (Human), UniProt P06241)
# Assay: as above
# Format: biochemical
# Details: not given
# Method: as §1
# FYN, sequence (P06241 whole entry): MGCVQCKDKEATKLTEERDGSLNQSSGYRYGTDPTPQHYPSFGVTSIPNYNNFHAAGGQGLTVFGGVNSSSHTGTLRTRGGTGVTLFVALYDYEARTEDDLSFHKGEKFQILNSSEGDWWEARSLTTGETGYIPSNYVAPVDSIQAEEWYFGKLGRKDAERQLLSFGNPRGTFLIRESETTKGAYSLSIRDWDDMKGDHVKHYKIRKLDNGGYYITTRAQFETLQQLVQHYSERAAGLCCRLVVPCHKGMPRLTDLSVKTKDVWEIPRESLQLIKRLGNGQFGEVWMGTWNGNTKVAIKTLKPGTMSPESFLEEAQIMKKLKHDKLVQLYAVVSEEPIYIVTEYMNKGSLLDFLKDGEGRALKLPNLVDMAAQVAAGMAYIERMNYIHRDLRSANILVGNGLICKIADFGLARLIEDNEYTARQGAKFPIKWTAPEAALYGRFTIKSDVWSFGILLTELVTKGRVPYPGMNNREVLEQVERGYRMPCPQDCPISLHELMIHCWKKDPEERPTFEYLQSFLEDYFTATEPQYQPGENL
row,SMILES,IC50 [nM]
1,"COc1cc(O[C@H]2CCN(C3COC3)CC2(F)F)c2c(Nc3c(F)ccc4c3OCO4)ncnc2c1 [Compound 45, (S)-5-((3,3-difluoro-1-(oxetane-3-yl)piperidin-4-yl)oxy)-N-(5-fluorobenzo[d] [1,3]dioxolcyclopenten-4-yl)-7-methoxyquinazolin-4-amine]",< 100
2,"COc1cc(O[C@H]2CCN(C(C)C)CC2(F)F)c2c(Nc3c(F)ccc4c3OCO4)ncnc2c1 [Compound 47, (S)-5-((3,3-difluoro-1-isopropylpiperidin-4-yl)oxy)-N-(5-fluorobenzo[d][1,3]dioxolcyclopenten-4-yl)-7-methoxyquinazolin-4-amine]",< 100

# Second part, the molecule after the results:
row,IC50 [nM],SMILES
1,< 100,"COc1cc(O[C@H]2CCN(C)CC2(F)F)c2c(Nc3c(Cl)ccc4c3OCO4)ncnc2c1 [Compound 44, (S)—N-(5-chlorobenzo[d] [1,3]dioxolcyclopenten-4-yl)-5-((3,3-difluoro-1-methylpiperidin-4-yl)oxy)-7-deuterated methoxyquinazolin-4-amine]"
2,< 100,"COc1cc(O[C@H]2CCN(C3COC3)CC2(F)F)c2c(Nc3c(Cl)ccc4c3OCO4)ncnc2c1 [Compound 46, (S)-5-((3,3-difluoro-1-(oxetane-3-yl)piperidin-4-yl)oxy)-N-(5-chlorobenzo[d][1,3]dioxolcyclopenten-4-yl)-7-methoxyquinazolin-4-amine]"

# Target: VEGFR2 (Homo sapiens (Human), UniProt P35968)
# Assay: as above
# Format: biochemical
# Details: not given
# Method: as §1
# VEGFR2, sequence (P35968 20-1356): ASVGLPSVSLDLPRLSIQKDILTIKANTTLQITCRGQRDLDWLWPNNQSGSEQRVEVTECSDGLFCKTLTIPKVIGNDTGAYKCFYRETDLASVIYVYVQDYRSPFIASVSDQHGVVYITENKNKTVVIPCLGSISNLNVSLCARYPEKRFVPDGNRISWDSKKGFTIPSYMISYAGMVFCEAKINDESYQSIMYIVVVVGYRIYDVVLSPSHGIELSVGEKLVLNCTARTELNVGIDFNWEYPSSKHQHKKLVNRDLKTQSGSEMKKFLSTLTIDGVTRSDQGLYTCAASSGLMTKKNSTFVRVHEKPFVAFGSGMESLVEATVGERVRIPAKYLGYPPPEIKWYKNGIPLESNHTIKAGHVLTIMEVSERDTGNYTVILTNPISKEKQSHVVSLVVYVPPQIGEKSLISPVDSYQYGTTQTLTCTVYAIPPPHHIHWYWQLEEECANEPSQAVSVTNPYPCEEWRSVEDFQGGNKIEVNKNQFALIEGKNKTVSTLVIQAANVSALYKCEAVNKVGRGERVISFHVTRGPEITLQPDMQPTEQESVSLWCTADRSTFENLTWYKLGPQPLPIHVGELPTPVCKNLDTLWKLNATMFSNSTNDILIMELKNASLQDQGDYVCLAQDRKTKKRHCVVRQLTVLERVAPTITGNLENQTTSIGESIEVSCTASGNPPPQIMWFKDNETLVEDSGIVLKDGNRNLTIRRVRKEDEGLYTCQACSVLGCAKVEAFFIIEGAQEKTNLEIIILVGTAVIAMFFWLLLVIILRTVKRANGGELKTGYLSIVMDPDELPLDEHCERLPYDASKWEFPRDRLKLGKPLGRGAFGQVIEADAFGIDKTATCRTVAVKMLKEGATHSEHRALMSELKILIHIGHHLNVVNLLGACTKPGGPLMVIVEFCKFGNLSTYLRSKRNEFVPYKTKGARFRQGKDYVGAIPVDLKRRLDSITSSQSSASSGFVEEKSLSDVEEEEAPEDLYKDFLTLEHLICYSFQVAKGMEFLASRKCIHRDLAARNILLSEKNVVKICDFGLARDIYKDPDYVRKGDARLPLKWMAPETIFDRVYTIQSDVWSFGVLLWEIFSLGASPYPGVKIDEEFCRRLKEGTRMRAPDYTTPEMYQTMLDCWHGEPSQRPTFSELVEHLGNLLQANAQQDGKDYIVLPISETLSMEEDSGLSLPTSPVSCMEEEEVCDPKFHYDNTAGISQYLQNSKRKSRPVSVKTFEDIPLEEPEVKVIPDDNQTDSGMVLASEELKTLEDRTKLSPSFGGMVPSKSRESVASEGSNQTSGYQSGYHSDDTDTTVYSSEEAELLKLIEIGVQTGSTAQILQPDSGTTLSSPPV
row,SMILES,IC50 [nM]
1,"COc1cc(OC2CCN(C)CC2(F)F)c2c(Oc3ccc4[nH]c(C)cc4c3F)ncnc2c1 (racemic) [Compound 1, (R/S)-5-((3,3-difluoro-1-methylpiperidin-4-yl)oxy)-4-((4-fluoro-2-methyl-1H-indole-5-yl)oxy)-7-methoxyquinazoline]",< 10
2,"COc1cc(OC2CCN(C)CC2(F)F)c2c(Oc3cc(F)c4[nH]c(C)cc4c3F)ncnc2c1 (racemic) [Compound 3, (R/S)-5-((3,3-difluoro-1-methylpiperidin-4-yl)oxy)-4-((4,7-difluoro-2-methyl-1H-indol-5-yl)oxy)-7-methoxyquinazoline]",< 10
3,"COc1cc(O[C@@H]2CCN(C)CC2(F)F)c2c(Oc3ccc4[nH]c(C)cc4c3F)ncnc2c1 [Compound 17, (R)-5-((3,3-difluoro-1-methylpiperidin-4-yl)oxy)-4-((4-fluoro-2-methyl-1H-indole-5-yl)oxy)-7-methoxyquinazoline]",< 10
4,"COc1cc(O[C@@H]2CCN(C)CC2(F)F)c2c(Oc3cc(F)c4[nH]c(C)cc4c3F)ncnc2c1 [Compound 19, (R)-5-((3,3-difluoro-1-methylpiperidin-4-yl)oxy)-4-((4,7-difluoro-2-methyl-1H-indol-5-yl)oxy)-7-methoxyquinazoline]",< 10
5,"COc1cc(O[C@H]2CCN(C)CC2(F)F)c2c(Oc3ccc4[nH]c(C)cc4c3F)ncnc2c1 [Compound 33, (S)-5-((3,3-difluoro-1-methylpiperidin-4-yl)oxy)-4-((4-fluoro-2-methyl-1H-indole-5-yl)oxy)-7-methoxyquinazoline]",< 10
6,"COc1cc(O[C@H]2CCN(C)CC2(F)F)c2c(Oc3cc(F)c4[nH]c(C)cc4c3F)ncnc2c1 [Compound 35, (S)-5-((3,3-difluoro-1-methylpiperidin-4-yl)oxy)-4-((4,7-difluoro-2-methyl-1H-indol-5-yl)oxy)-7-methoxyquinazoline]",< 10

# Other lines, results leading:
row,IC50 [nM],SMILES
1,< 10,"COc1cc(OC2CCN(C)CC2(F)F)c2c(Oc3ccc4[nH]c(C)cc4c3F)ncnc2c1 (racemic) [Compound 2, (R/S)-5-((3,3-difluoro-1-methylpiperidin-4-yl)oxy)-4-((4-fluoro-2-methyl-1H-indole-5-yl)oxy)-7-deuterated methoxyquinazoline]"
2,< 10,"COc1cc(O[C@@H]2CCN(C)CC2(F)F)c2c(Oc3ccc4[nH]c(C)cc4c3F)ncnc2c1 [Compound 18, (R)-5-((3,3-difluoro-1-methylpiperidin-4-yl)oxy)-4-((4-fluoro-2-methyl-1H-indole-5-yl)oxy)-7-deuterated methoxyquinazoline]"
3,< 10,"COc1cc(O[C@H]2CCN(C)CC2(F)F)c2c(Oc3ccc4[nH]c(C)cc4c3F)ncnc2c1 [Compound 34, (S)-5-((3,3-difluoro-1-methylpiperidin-4-yl)oxy)-4-((4-fluoro-2-methyl-1H-indole-5-yl)oxy)-7-deuterated methoxyquinazoline]"

# Test system: SKOV3 tumor cells
# Assay: SKOV3 tumor cell mouse subcutaneous animal model
# Format: in vivo
# Details: monotherapy, 10 mg/kg, oral, twice a day, four weeks; vs control group
# Method: (§2) In the efficacy experiment of SKOV3 tumor cell mouse subcutaneous animal model (FIG. 1), the drug was administered on the 30th day after the tumor cells were planted and the drug administration was lasted for four weeks. […] In the efficacy experiment of the PC-9Luc tumor cell mouse intracranial animal model (FIG. 2), the drug was administered on the 10th day after the tumor cells were planted and the drug administration was lasted for three weeks. The second group of compound 1 was used as monotherapy, 10 mg/kg, oral dosing, twice a day; the third group of EGFR inhibitors (chemical name: (R)-6-[(3,3-difluoro-1-methylpiperidin-4-yl)oxy]-nitrogen-(3-ethynyl-2-fluorophenyl)-7-methoxyquinazolin-4-amine) was used as monotherapy, 3 mg/kg, oral dosing, twice a day; the fourth group of compound 1 combined with EGFR inhibitors.
row,SMILES,inhibition of tumor growth
1,"COc1cc(OC2CCN(C)CC2(F)F)c2c(Oc3ccc4[nH]c(C)cc4c3F)ncnc2c1 (racemic) [Compound 1, (R/S)-5-((3,3-difluoro-1-methylpiperidin-4-yl)oxy)-4-((4-fluoro-2-methyl-1H-indole-5-yl)oxy)-7-methoxyquinazoline]",good inhibition of tumor growth

# Same assay, conditions: monotherapy, 20 mg/kg, oral, twice a day, four weeks; vs control group
row,SMILES,inhibition of tumor growth
1,"COc1cc(OC2CCN(C)CC2(F)F)c2c(Oc3ccc4[nH]c(C)cc4c3F)ncnc2c1 (racemic) [Compound 1, (R/S)-5-((3,3-difluoro-1-methylpiperidin-4-yl)oxy)-4-((4-fluoro-2-methyl-1H-indole-5-yl)oxy)-7-methoxyquinazoline]",good inhibition of tumor growth

# Test system: PC-9Luc tumor cells
# Assay: PC-9Luc tumor cell mouse intracranial animal model
# Format: in vivo
# Details: monotherapy, 3 mg/kg, oral, twice a day, three weeks; vs control group
# Method: as §2
row,SMILES,inhibition of intracranial tumor growth
1,"C#Cc1cccc(Nc2ncnc3cc(OC)c(O[C@@H]4CCN(C)CC4(F)F)cc23)c1F [EGFR inhibitor, (R)-6-[(3,3-difluoro-1-methylpiperidin-4-yl)oxy]-nitrogen-(3-ethynyl-2-fluorophenyl)-7-methoxyquinazolin-4-amine]",good inhibition on intracranial tumor growth
